Reference: patent US10595532B2, “Ophthalmic contact lens solutions containing forms of vitamin B” (FXS Ventures, LLC, priority 2000, dated 2020)
Counter-ions that a name gives are not always drawn.

What was measured:
Type in all cases: cell-based
[1] = system: C. albicans; test: in vitro microbicidal activity of vitamin B solutions in 0.2% phosphate buffer preserved with PHMB (Example 1); conditions: PHMB 0.0001%; for activity against C. albicans as compared to the buffer control: 0.5% additive, 4 hours; for 4 Hour Log Reduction: C. albicans, room temperature, additive 0.5% in 0.2% phosphate buffer, isotonic, pH 7.2, vs inoculum control
Procedure: (§1) Formulations containing Pyridoxine HCl (Spectrum) and Thiamine HCl (Fisher) were prepared in a 0.2% phosphate buffer. The solutions were made isotonic with sodium chloride and preserved with polyhexamethylene biguanide at 0.0001%. The pH was adjusted to 7.2 with either 1 N sodium hydroxide or 1 N hydrochloric acid. The in vitro microbicidal activity of the solutions was determined by exposing C. albicans to 10 ml of each solution at room temperature for 4 hours. Subsequently, an aliquot of each solution was serial diluted onto agar plates and incubated for 48 hours at elevated temperatures. At the conclusion of the incubation period the plates are examined for the development of colonies. The log reduction was determined based on a comparison to the inoculum control.

[2] = system: E. coli; test: in vitro anti-microbial activity of vitamin B solutions in 0.5% Tris buffer with benzalkonium chloride (Example 4); conditions: for effect on the preservative (BAK): 0.5% vitamin B, 25 PPM BAK, E. coli 1 hour; for Log Reduction at 1 hr: E. coli, 0.5% Tris
Procedure: Formulations containing Dexpanthanol (Spectrum), Pyridoxine HCl (Spectrum) Thiamine HCl (Spectrum), and no Vitamin B control were prepared in a 0.5% Tris buffer containing 0.6% sodium chloride. The pH was adjusted with 1 N HCl to a final pH of 7.2. […] The in vitro anti-microbial activity of the solutions was determined by exposing E. coli to 10 ml of each solution at room temperature for 1 hour. Subsequently, an aliquot of each solution was serial diluted onto agar plates and incubated for 48 hours at elevated temperatures. At the conclusion of the incubation period the plates are examined for the development of colonies. The log reduction was determined based on a comparison to the inoculum control. The following table provides the results of the in vitro studies.

[3] = system: E. coli; test: in vitro anti-microbial activity of vitamin B solutions in 0.5% Tris buffer with PHMB (Example 3); conditions: for effect on the preservative (PHMB): 0.5% vitamin B, 1 ppm PHMB, E. coli 1 hour; for Log Reduction at 1 hr: E. coli, room temperature, 0.5% Tris, 0.6% sodium chloride, pH 7.2, 1 ppm PHMB, vitamin B 0.5% or none
Procedure: Formulations containing Dexpanthanol (Spectrum), Pyridoxine HCl (Spectrum) Thiamine HCl (Spectrum), and no Vitamin B control were prepared in a 0.5% Tris buffer containing 0.6% sodium chloride. The pH was adjusted with 1 N HCl to a final pH of 7.2. Polyhexamethylene biquanide (PHMB) at 0.0001% was added to each formulation. The in vitro anti-microbial activity of the solutions was determined by exposing E. coli to 10 ml of each solution at room temperature for 1 hours. Subsequently, an aliquot of each solution was serial diluted onto agar plates and incubated for 48 hours at elevated temperatures. At the conclusion of the incubation period the plates are examined for the development of colonies. The log reduction was determined based on a comparison to the inoculum control.

[4] = system: C. albicans; test: in vitro microbicidal activity of dexpanthenol solutions in 0.25% Bis-Tris Propane buffer preserved with PHMB (Example 2); conditions: PHMB 0.5 ppm; for Log Reduction Calibicans 4 hour: C. albicans, room temperature, Bis-Tris Propane 0.25%, Cremophor 0.20%, Inositol 3.0%, Allantoin 0.1%, pH 7.2, dexpanthenol 0.1% or none
Procedure: as §1, with “dexpanthenol” for “Pyridoxine HCl (Spectrum) and Thiamine HCl (Fisher)”, “0.25% Bis-Tris Propane” for “0.2% phosphate”, “biquanide” for “biguanide”, “0.00005%.” for “0.0001%.”, “control. The following table provides the results of the in vitro studies.” for “control.”

[5] = room temperature, 0.6% sodium chloride, pH 7.2, 25 PPM BAK, vitamin B 0.5%

Compound | activity against C. albicans as compared to the buffer control [1] | 4 Hour Log Reduction [1] | effect on the preservative (BAK) [2] | Log Reduction at 1 hr [2, 5] | effect on the preservative (PHMB) [3] | Log Reduction at 1 hr [3] | Log Reduction Calibicans 4 hour [4] | preservative efficacy over a solution with a preservative alone ([4]; dexpanthenol 0.1%, C. albicans 4 hours) | Log Reduction at 1 hr ([2]; no vitamin B, row printed with 1 ppm PHMB)
Cc1ncc(CO)c(CO)c1O.Cl [Pyridoxine HCl] | improvement in the activity | 2.0 | enhancement of the preservative | >5.12 | enhancement of the preservative | 4.34 |  |  | 
Cc1ncc(C[n+]2csc(CCO)c2C)c(N)n1 [Thiamine HCl] | improvement in the activity | 1.0 |  | 3.30 | enhancement of the preservative | 5.12 |  |  | 
CC(C)(CO)[C@@H](O)C(=O)NCCCO [Dexpanthenol, dexpanthenol] |  |  | enhancement of the preservative | >5.12 | enhancement of the preservative | 4.82 | 4.9 | improved preservative efficacy | 
polyhexamethylene biguanide [PHMB] |  |  |  |  |  | 0.42 | 3.8 |  | 0.42
